Data: publication PMC12494543, “Identification of ALKBH6 as a nucleotide demethylase with a distinct substrate preference” (The Journal of Biological Chemistry, 2025)

How the values were obtained:
ALKBH6 [1] = target: T1, ALKBH6 (Homo sapiens, UniProt Q3KRA9); assay: Uncoupled succinate production (SucCD colorimetric assay); assay type: biochemical; conditions: CoCl2 20 μM, no substrate
T1 construct: His-tag; made in house
Procedure: The uncoupled succinate production reaction was set up in two steps as described before ([54]). In the initial step, WT ALKBH6 (5–20 μM) was incubated in dioxygenase reaction buffer (20 mM Hepes, pH 8.0, 0.2 mM 2OG, 2 mM ascorbate, 5 μM Fe(NH4)2(SO4)2) for 1 h at 37 °C to form succinate. Then the reaction mixture (50 μl) was mixed with recombinant sucCD (1 μM) in SucCD reaction buffer (2 mM MES, pH 6.5, 5 mM ATP 3.258 mM CoA, 50 mM MgCl2) and further incubated for 30 min at 37 °C. Finally, molybdate solution was added for colorimetric detection and the succinate concentration was detected from the standard curve. For inhibition, CoCl2 (20 μM) was used. The results were plotted and analyzed using GraphPad Prism (www.graphpad.com).

ALKBH6 [2] = target: T1, ALKBH6; assay: FDH-coupled formaldehyde release demethylation assay; assay type: biochemical; conditions: me-dNMPs as substrate
Procedure: NMPs including 1meAMP (Jena Bioscience, NU-1029-1,) 7meGMP (Jena Bioscience, NU-1135S), 6me-AMP (Sigma, M2780) were purchased. N-methylated deoxy-NMPs were prepared by methylating chemically synthesized 30-mer oligonucleotide containing either dA, dG, dC, or dT by MMS (5%, v/v) (0.59 M) MMS (Sigma, 129925) and purified as described before ([17]). The oligonucleotides were digested with nuclease P1 (NEB) at 37 °C for 4 h to produce deoxy-NMPs. After heat inactivating the nuclease, dNMPs were purified by HPLC and used for the demethylation reaction. N-methylated NMPs were purified similarly, using RNA as the starting material. For the demethylation reaction, ALKBH6 (1 μM) and me-dNMPs (1 mM) were mixed in the dioxygenase reaction buffer and incubated at 37 °C for 30 min. Formaldehyde release was detected by FDH-coupled DNA repair assay as described before ([32], [33]). Briefly, 1 mM NAD+ and 0.01 U FDH were added to the dioxygenase reaction buffer containing methylated nucleotide and ALKBH6. NADH generated was detected by the characteristic absorption peak (340 nm) using a 96-well multimode reader (Synergy, Biotek Instrument). Formaldehyde production was quantified from the standard curve and the initial velocities were determined using various substrate concentrations. The results were plotted and analyzed using GraphPad Prism.

T1 sequence (Q3KRA9 whole entry): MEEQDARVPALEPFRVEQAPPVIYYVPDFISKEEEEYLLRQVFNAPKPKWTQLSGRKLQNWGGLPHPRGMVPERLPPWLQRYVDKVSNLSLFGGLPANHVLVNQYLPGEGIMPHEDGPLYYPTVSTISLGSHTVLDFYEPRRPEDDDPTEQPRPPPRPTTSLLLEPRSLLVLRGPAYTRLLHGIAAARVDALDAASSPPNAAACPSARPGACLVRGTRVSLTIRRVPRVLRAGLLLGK

[Cl][Co][Cl] [Co(II), cobalt chloride, reference compound]
inhibition of uncoupled succinate production (ALKBH6 [1]): inhibited
inhibition of ALKBH6-mediated demethylation (ALKBH6 [2]): completely inhibited
